Measured values as given in US20230158048A1, “COMBINATIONS” (Recurium IP Holdings, LLC, priority 2020, published 2023).

What was measured:
ZR-75-1 cells = assay: CTG Assay (CellTiter-Glo Luminescent Cell Viability Assay), cell proliferation; type: cell-based; conditions: Homo sapiens, 160 nM, 72 h
Protocol: Cell proliferation was measured using the CellTiter-Glo® Luminescent Cell Viability Assay. The assay involved the addition of a single reagent (CellTiter-Glo® Reagent) directly to cells cultured in serum-supplemented medium. ZR-75-1 (ATCC® CRL-1500) cells were cultured according to ATCC recommendations and were seeded at 10,000 cells per well.
Compound 5A and Palbociclib were prepared as a DMSO stock solution (10 mM). Plates were incubated at 37° C., 5% CO2 for 72 h and then equilibrated at room temperature for approximately 30 min. An equal-volume amount of CellTiter-Glo® Reagent (100 μL) was added to each well. Plates were mixed for 2 min on an orbital shaker to induce cell lysis and then incubated at RT for 10 min to stabilize the luminescent signal. Luminescence (RLU (relative light unit)) was recorded using a SpectraMAX, M5e plate reader according to CellTiter-Glo protocol. Percent inhibition was calculated using the following formula: % inhibition=(RLU*100/(RLU of the cell background)). IC50 of each compound was calculated using GraphPad Prism by nonlinear regression analysis.

MCF-7 cells = assay: Xenograft Tumor Model, MCF-7 (ER+ Breast cancer) mouse model; type: in vivo; conditions: MCF-7 xenograft mice, 50 mg/kg p.o.
Protocol: Mice were inoculated with MCF-7 cells subcutaneously on the 2nd right mammary fat pad with the single cell suspension of 95% viable tumor cells (1×10^7) in 100 μL DMEM Matrigel mixture (1:1 ratio) without serum for the tumor development. The treatment was started when the mean tumor size reached approximately 226 mm^3, with individual tumor size ranging from 185-245 mm^3. Animals were randomly distributed into treatment groups of 10 animals each and dosed with vehicle and indicated compounds at indicated dosage and frequency provided in FIG. 4 and Table 3. In FIG. 4, the bottom line with star is Compound 5A (200 mg/kg p.o. qd×24)+Palbociclib (50 mg/kg p.o. pd×24). Tumor volumes were evaluated twice per week to calculate tumor volume over time, and mice were weighed twice per week as a surrogate for signs of toxicity. Tumor growth inhibition (TGI) was calculated using the following equation TGI=(1−(Td−T0)/(Cd−C0))×100%. Td and Cd are the mean tumor volumes of the treated and control animals, and TO and C0 are the mean tumor volumes of the treated and control animals at the start of the experiment. The tumor regression was defined as individual tumor volume (TV) decrease (terminal TV compared to initial TV). The percent tumor regression was calculated using the formula: (1−(Td/T0))×100%.

CC(=O)c1c(C)c2cnc(Nc3ccc(N4CCNCC4)cn3)nc2n(C2CCCC2)c1=O [Palbociclib]
inhibition at 0.16 µM (ZR-75-1 cells): 20%
TUMOR REGRESSION % (DAY 23) (MCF-7 cells): 0%
